Counter-ions that a name gives are not always drawn. Like-named read-outs stand apart in the source and are kept apart here.
Tests used:
P. falciparum Dd2-HLH [1] = assay: microbe, parasite or virus in culture; assay type: cell-based, Plasmodium falciparum
P. falciparum Dd2-HLH [2] = assay: microbe, parasite or virus in culture; assay type: cell-based, Plasmodium falciparum; conditions: read-out: Blood stage 72h EC50
[3] = test system: P. berghei-luciferase sporozoites; assay: microbe, parasite or virus in culture; assay type: cell-based, Plasmodium berghei; conditions: liver-stage parasites
[4] = Mammalian cell cytotoxicity assay, HepG2 (CellTiter-Glo, 72 h); conditions: human, HepG2 cells
[5] = Mammalian cell cytotoxicity assay, HEK293T (CellTiter-Glo, 72 h); conditions: human, HEK293T cells
in vitro = conditions: human
HEK293T cells = assay: Mammalian cell cytotoxicity assay, HEK293T (CellTiter-Glo, 72 h); conditions: read-out: HEK CC50
[6] = Plasmodium falciparum, DD2, 48 h, read-out: Blood stage 48h EC50
[7] = Plasmodium falciparum, DD2, 72 h
[8] = Plasmodium berghei, HepG2, 48 hours in culture, read-out: Liver stage 48h EC50
[9] = P. falciparum blood-stage parasites, 72 hours in culture
[10] = 48 hours in culture, read-out: Liver stage 48h EC50
[11] = Plasmodium falciparum, DD2, P. falciparum blood-stage parasites, 48 hours in culture, read-out: Blood stage 48h EC50
[12] = Plasmodium falciparum, DD2, P. falciparum blood-stage parasites, 72 hours in culture
[13] = P. falciparum blood-stage parasites, 48 hours in culture, read-out: Blood stage 48h EC50

| Structure (SMILES) | EC50 (P. falciparum Dd2-HLH [1]; [6]) [µM] | EC50 (P. falciparum Dd2-HLH [2]; [7]) [µM] | EC50 [3, 8] [µM] | CC50 at 72 h [4] [µM] | CC50 at 72 h [5] [µM] | CC50 (in vitro) [µM] | other results |
| --- | --- | --- | --- | --- | --- | --- | --- |
| c1ccc(Cn2c(N3CCNCC3)nc3ccccc32)cc1 [Lerisetron] | 0.144 | 0.267 | 1.13 | 0.236 | > 9.95 |  |  |
| CN1CCC(CNc2ccc3ncc(-c4cccc(OC(F)(F)F)c4)n3n2)CC1 [SGI-1776] | 0.482 | 0.623 | 1.79 | 1.04 | 4.58 |  |  |
| N[C@H](C(=O)O)[C@@H]1CC(Cl)=NO1 [Acivicin] | 0.209 | 0.545 | 1.1 | 1.7 | 7.73 |  |  |
| C[C@@H](Oc1cc(-c2cnn(C3CCNCC3)c2)cnc1N)c1c(Cl)ccc(F)c1Cl [Crizotinib] | 0.225 | 0.827 | 8.52 |  |  | > 9.95 |  |
| CC[C@@]1(O)C[C@H](O[C@H]2C[C@H](N(C)C)[C@H](O[C@H]3C[C@H](O)[C@H](O[C@H]4CCC(=O)[C@H](C)O4)[C@H](C)O3)[C@H](C)O2)c2c(cc3c(c2O)C(=O)c2c(O)cccc2C3=O)[C@H]1C(=O)OC [Aclarubicin] | 0.154 | 0.302 | 2.23 |  |  | 0.166 |  |
| O=C(Nc1ccccc1)N[C@@H]1C(=O)N(CC23CC4CC(CC(C4)C2)C3)c2ccccc2N(c2ccccc2)C1=O [GV 150013] |  |  |  |  |  |  | EC50 (P. falciparum Dd2-HLH [2]; [9]): 0.253 µM; EC50 [3, 10]: > 10 µM; CC50 (HEK293T cells; HEK293T cells): > 9.95 µM |
| CC(=O)[C@]1(O)Cc2c(O)c3c(c(O)c2[C@@H](O[C@H]2C[C@H](N)[C@H](O)[C@H](C)O2)C1)C(=O)c1ccccc1C3=O [Idarubicin] | 1.87 | 0.302 | 0.843 |  |  | 0.036 |  |
| CCCCCC(=O)O[C@]1(C(C)=O)CC[C@H]2[C@@H]3CCC4=CC(=O)CC[C@]4(C)[C@H]3CC[C@@]21C [Hydroxyprogesterone caproate] | 0.55 | 0.742 | 1.71 | 0.863 | > 9.95 |  |  |
| CC(=O)O[C@H]1C(=O)[C@@]2(C)[C@H]([C@H](OC(=O)c3ccccc3)[C@]3(O)C[C@H](OC(=O)[C@H](O)[C@@H](NC(=O)c4ccccc4)c4ccccc4)C(C)=C1C3(C)C)[C@]1(OC(C)=O)CO[C@@H]1C[C@@H]2O [Paclitaxel] | 0.164 | 0.186 | 7.53 | 7.04 | > 9.95 |  |  |
| C[C@@H]1C[C@@H]([C@H](O)CC2CC(=O)NC(=O)C2)C(=O)[C@@H](C)C1 [Cycloheximide] |  |  | 0.109 |  |  | 0.759 | EC50 (P. falciparum Dd2-HLH [1]; [11]): 0.178 µM; EC50 (P. falciparum Dd2-HLH [2]; [12]): 0.301 µM |
| O=C1c2ccccc2-n2c1nc1ccccc1c2=O [Tryptanthrin] | 0.737 | 0.562 | 0.041 |  |  | > 9.95 |  |
| COc1ccc(-c2nc(N3CCOCC3)c3sc(CN(C)c4ncc(C(=O)NO)cn4)cc3n2)cn1 [CUDC-907, reference compound] | 0.008 | 0.018 |  | 0.003 | 0.027 |  | EC50 (P. falciparum Dd2-HLH [1]; Plasmodium falciparum, DD2, Hec50, 48 h, read-out: Blood stage 48 h EC50): 0.0075 µM; EC50 ([3]; Plasmodium berghei, 48 h in culture, read-out: Liver 48 h EC50): 0.039 µM |
| CO[C@H]1/C=C\C=C(/C)C(=O)NC2=CC(=O)C(NCCN(C)C)=C(C[C@@H](C)C[C@H](OC)[C@H](O)[C@@H](C)/C=C(\C)[C@@H]1OC(N)=O)C2=O [Alvespimycin hydrochloride] | 0.159 | 0.273 | 0.129 |  |  | 0.164 |  |
| Cc1ccc(CCCO)c(NCc2ccc3nc(NCCCN4CCOCC4)n(Cc4nc(C)ccc4O)c3c2)c1 [TMC-353121] |  |  |  |  |  |  | EC50 (P. falciparum Dd2-HLH [1]; [13]): 0.319 µM; EC50 (P. falciparum Dd2-HLH [2]; [9]): 0.65 µM; EC50 [3, 10]: > 10 µM; CC50 (HEK293T cells; HEK293T cells): > 9.95 µM |
| COc1ccc(C[C@H](N)C(=O)N[C@H]2[C@@H](O)[C@H](n3cnc4c(N(C)C)ncnc43)O[C@@H]2CO)cc1 [Puromycin] | 0.061 | 0.125 | 0.84 | 0.498 | 1.25 |  |  |
| COc1cc2c(Nc3ccc(NC(=O)c4ccccc4)cc3)ncnc2cc1OCCCN1CCOCC1 [ZM447439] |  |  |  |  |  |  | EC50 (P. falciparum Dd2-HLH [1]; [13]): 0.452 µM; EC50 (P. falciparum Dd2-HLH [2]; [9]): 0.643 µM; EC50 [3, 10]: 4.33 µM; CC50 (HEK293T cells; HEK293T cytotoxicity): > 9.95 µM |
| C[C@]12O[C@H](C[C@]1(O)CO)n1c3ccccc3c3c4c(c5c6ccccc6n2c5c31)CNC4=O [Lestaurtinib] |  |  | 1.02 | 0.029 | 0.551 |  | EC50 (P. falciparum Dd2-HLH [1]; [11]): 0.088 µM; EC50 (P. falciparum Dd2-HLH [2]; [12]): 0.259 µM |
| CN[C@@H]1C[C@H]2O[C@@](C)([C@@H]1OC)n1c3ccccc3c3c4c(c5c6ccccc6n2c5c31)C(=O)N[C@H]4O [UCN-01] |  |  |  |  |  |  | EC50 (P. falciparum Dd2-HLH [1]; [13]): 0.079 µM; EC50 (P. falciparum Dd2-HLH [2]; [9]): 0.488 µM; EC50 [3, 10]: 2.15 µM; CC50 (HEK293T cells; HEK293T cytotoxicity): 0.074 µM |
| CC[C@]1(O)C[C@@H]2CN(CCc3c([nH]c4ccccc34)[C@@](C(=O)OC)(c3cc4c(cc3OC)N(C)[C@H]3[C@@](O)(C(N)=O)[C@H](O)[C@]5(CC)C=CCN6CC[C@]43[C@@H]65)C2)C1 [Vindesine] | 0.014 | 0.02 | 0.837 | > 9.99 | > 9.95 |  |  |

— article PMC11145868, “Protein target similarity is positive predictor of in vitro antipathogenic activity: a drug repurposing strategy for Plasmodium falciparum” (Journal of Cheminformatics, 2024)
